Data on 5 compounds can be found in patent publication US20140335019A1, “COMPOSITIONS AND METHODS FOR THE TREATMENT AND ANALYSIS OF NEUROLOGICAL DISORDERS” (THE REGENTS OF THE UNIVERSITY OF MICHIGAN, priority 2011, published 2014).

For data set [1], the system named is Aβ species. To be noted: cited from earlier work.
A short description of data set [2]: in vivo biodistribution of radiolabeled compound. Details: species or system C57B1/6 mice. On the procedure:
Healthy female C57B1/6 mice (n=18) were administered by bolus intravenous injection with [^3H]-3b (2.5 μCi) each. The mice were divided into 3 groups of 6. Each group was sacrificed at 10 min, 60 min and 120 min post injection. Biodistribution was carried out by harvesting blood from cardiac puncture and tissue (liver, heart, kidneys, lungs, small intestine, muscle, spleen, feces, bladder, bone and brain). The brain was divided into four different sections (cerebellum, frontal cortex, parietal cortex and striatum). The tissue was digested and counted for accumulated activity.

A short description of data set [3]: solution speciation by UV-vis variable-pH titrations. It counts as physicochemical. To be noted: physiological pH (ca. 7.4).
Data set [4] has as its target Aβ monomer pretreated with ZnCl2 (Homo sapiens, UniProt P05067). The experiment in a line: NMR studies of compound with Aβ monomer pretreated with ZnCl2. It counts as binding. From the text: (§1) While an understanding of the mechanism is not necessary to practice the invention and the invention is not limited to any particular mechanism of action, these observations imply that the compounds may target metal ions associated with Aβ species.

Data set [5] has as its target Aβ aggregates (Homo sapiens, UniProt P05067). Nature of the data set: ELISA of interaction with Aβ aggregates. It counts as binding. To be noted: similar to ThT.
Source text: as §1
A general note: ELISA stands for enzyme-linked immunosorbent assay.

Data set [6] relates to Aβ species in human AD brain tissue homogenates. The experiment in a line: treatment of human AD brain tissue homogenates, Western blotting with 6E10. To be noted: 24 h treatment, frontal cortex homogenates. It is filed as biochemical. An excerpt: The frontal cortex section of the human AD brain was selected because it generally contains high amounts of Aβ aggregates. […] Also, using these compounds, similar to in vitro disaggregation studies with synthetic Aβ peptide above, perturbing metal-Aβ interaction is contemplated to find use for disassembling Aβ aggregates in brain tissue.

Data set [7] concerns M17 cells. The experiment in a line: cytotoxicity of metal (CuII or ZnII)-associated Aβ species with compounds, MTT assay. To be noted: Aβ 20 μM, metal ions 20 μM, compound 40 μM, 24 h. It counts as cell-based, human.
Experimental: Then, the cells were incubated for 24 h.
(§2) Preliminary cytotoxicity studies of the compounds in human SK-N-BE(2)-M17 (M17) neuroblastoma cells were carried out using a standard colorimetric assay for measuring cell growth (i.e., MTT assay; MTT=3-(4,5-dimethylthiazol-2-yl)-2,5-diphenyltetrazolium bromide).
Data set [8] concerns Tg2576 hAPP-transgenic mice. The experiment in a line: in vivo activity in Tg2576 hAPP-transgenic mice (4G8 and Congo red staining of brain slices). To be noted: 1 mg/kg oral gavage every two days for two months; relative to control vehicle; p<0.01. As to the method:
During the development of embodiments of the technology provided herein, experiments were conducted to verify the efficacy of pharmaceutical compositions according to the technology by testing in a murine model. Pharmaceutical compositions comprising compounds described herein were administered every two days at 1 mg/kg (0.1 ml/10 g body weight) to four female Tg2576 hAPP-transgenic mice (18 months old) for two months (total 30 times in 60 days) by oral gavage.
Efficacy was evaluated after drug administration. Tissue slices […] long were prepared from cerebrums of Tg2576 mice by a procedure comprising rapid freezing and cutting using a cryostat. To verify the degree of amyloid beta accumulation, the brain tissue slices were stained by APP/Aβ17-24-immunospecific antibody 4G8. In addition, to identify the amount of mature amyloid plaques that were generated in the presence of Apolipoprotein E (ApoE), sample were stained with Congo red.

Data set [9] has as its system human SK-N-BE(2)-M17 (M17) neuroblastoma cells. To be noted: for concentration with no toxicity: human, 24 h.
Experimental: as §2

“Also recorded” adds a separate entry of the source.

Aβ monomer pretreated with ZnCl2, sequence (P05067 672-711 limits assumed): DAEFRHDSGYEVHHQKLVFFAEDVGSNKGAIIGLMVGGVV
Aβ aggregates, sequence (P05067 672-711 limits assumed): as above

Turning to `CN(C)c1ccc(/C=C/c2ccc(I)cc2)cc1` [p-1-stilbene, (E)-4-(4-iodostyryl)-N,N-dimethylaniline], the “binding affinity to Aβ species” value in data set [1] is given as “strong binding affinity”.

For the compound `CN(C)c1ccc(NCc2ccccn2)cc1` [[^3H]-3b], the BBB crossing entry in [2] (bolus intravenous injection, 2.5 μCi, 10, 60 and 120 min post injection) was “can cross the BBB”. Besides, the brain uptake result in [2] (cerebellum, frontal cortex, parietal cortex, striatum, 10, 60, 120 min) is given as “relatively consistent within the time points chosen”.

For the compound `CN(C)c1ccc(NCc2ccccn2)cc1` [3b, N^1,N^1-Dimethyl-N^4-(pyridin-2-ylmethyl)benzene-1,4-diamine], the “main species in solution” value in data set [3] is “neutral form”. Moreover, in [4], the “complex formation with ZnII-pretreated Aβ monomer” value is “a ternary complex containing Aβ, ZnII, and the molecule may be generated”. For the same compound, in data set [5], the “interaction with Aβ aggregates (ELISA)” value is reported as “interacted with Aβ aggregates”. The “Aβ species visualized by Western blotting with 6E10” value in data set [6] was “more gel-permeable and lower MW Aβ species”. Besides, in [7], the “toxicity induced by metal-Aβ” value is “capable of reducing metal-Aβ neurotoxicity; also recorded: noticeably diminished toxicity”. Further, in [8], the “Aβ immunoreactivity (4G8 staining)” value is recorded as “reduced” and the “congophilicity (Congo red staining)” value is listed as “reduced”. In addition, in [9], the “concentration with no toxicity” value is “up to 40 μM”.

In the case of `CN(C)c1ccc(-c2cn3cc(I)ccc3n2)cc1` [IMPY, 4-(6-iodoimidazo[1,2-α]pyridin-2-yl)-N,N-dimethylaniline], the “binding affinity to Aβ species” value in data set [1] was “strong binding affinity”.

Regarding `CN(C)c1ccc(N=Cc2ccccn2)cc1` [2b, N^1,N^1-dimethyl-N^4-(pyridin-2-ylmethylene)benzene-1,4-diamine], in data set [9], the “cytotoxicity compared with CQ” value is on record as “less cytotoxic than CQ” and the “concentration with no toxicity” value is on record as “up to 100 μM”.
